Results from patent US20210030829A1, “METHODS FOR TREATMENT OF CANCER AND ENHANCEMENT OF NANOPARTICLE ACCUMULATION IN TISSUES” (University of Louisville Research Foundation, Inc., priority 2018, published 2021).

Set-up: species or system male C57BL/6 mice
Settings: mouse, in vivo

Visible abnormality: No visible abnormality
Compound: CCCCCCCCCCCCCCCCCCN1/C(=C/C=C/C=C/C=C/C2=[N+](CCCCCCCCCCCCCCCCCC)c3ccccc3C2(C)C)C(C)(C)c2ccccc21.[I-] [free DiR, 1,1-dioctadecyl-3,3,3′,3′-tetramethylindotricarbocyanine-iodide]
